Test results taken from publication PMC9307952, “Lipoate protein ligase B primarily recognizes the C8-phosphopantetheine arm of its donor substrate and weakly binds the acyl carrier protein” (The Journal of Biological Chemistry, 2022).

How the values were obtained:
MmLipT2 (mice LipT2) = MmLipT2 (mice LipT2) (Mus musculus, UniProt Q9D009); settings: 75 μM C8-CoA, 25 μM GcvH, 50 mM Tris-HCl, 500 mM NaCl, pH 8.0, 37 °C
E. coli LipB (EcLipB) = E. coli LipB (EcLipB) (Escherichia coli, UniProt P60720); settings: CoA:LipB 10:1 (STD, 283 K) or 8:1 (31P, 298 K), 50 mM Tris, 200 mM NaCl, pH 7.8
Sequence of E. coli LipB (EcLipB) (P60720 whole entry): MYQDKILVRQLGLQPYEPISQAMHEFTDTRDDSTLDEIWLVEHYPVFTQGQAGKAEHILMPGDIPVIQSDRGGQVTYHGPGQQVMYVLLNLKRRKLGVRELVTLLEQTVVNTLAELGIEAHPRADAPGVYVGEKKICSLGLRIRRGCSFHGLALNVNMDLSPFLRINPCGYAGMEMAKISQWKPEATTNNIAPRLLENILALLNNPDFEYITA

Sequence of MmLipT2 (mice LipT2) (Q9D009 whole entry): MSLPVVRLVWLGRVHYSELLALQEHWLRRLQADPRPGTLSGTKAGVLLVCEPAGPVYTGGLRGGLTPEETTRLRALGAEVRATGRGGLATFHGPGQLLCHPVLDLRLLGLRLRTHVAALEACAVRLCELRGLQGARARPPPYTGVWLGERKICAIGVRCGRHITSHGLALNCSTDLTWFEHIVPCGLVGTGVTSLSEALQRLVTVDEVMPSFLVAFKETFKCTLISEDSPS

| SMILES | octanoyl transfer to E. coli GcvH, SDS-PAGE band shift and HPLC (MmLipT2 (mice LipT2)) | 1H STD NMR; 31P NMR (E. coli LipB (EcLipB)) |
| --- | --- | --- |
| CCCCCCCC(=O)SCCNC(=O)CCNC(=O)[C@H](O)C(C)(C)COP(=O)(O)OP(=O)(O)OC[C@H]1O[C@@H](n2cnc3c(N)ncnc32)[C@H](O)[C@@H]1OP(=O)(O)O [C8-CoA] | MmLipT2 also successfully converted E. coli GcvH using C8-CoA as a donor substrate |  |
| CC(C)(COP(=O)(O)OP(=O)(O)OC[C@H]1O[C@@H](n2cnc3c(N)ncnc32)[C@H](O)[C@@H]1OP(=O)(O)O)[C@@H](O)C(=O)NCCC(=O)NCCS [CoA] |  | suggesting binding of the adenosine ring |
